{"source": "patent US20080299538A1", "about": "“Pathogen Inactivation of Whole Blood” (CARIDIANBCT BIOTECHNOLOGIES, LLC, priority 2003, published 2008)", "key": {"white blood cells (WBCs) [1]": {"test_system": "white blood cells (WBCs)", "test": "Cytokine production in response to anti-CD3/CD28 (Cytometric Bead Assay)"}, "platelets": {"test_system": "platelets", "test": "Platelet quality during storage", "format": "cell-based", "protocol": "Platelet quality is assessed with measurements of pH, swirl, lactate production rate and glucose consumption rate on Days 1 and 5.\nPlatelets were separated from pathogen inactivated whole blood and markers of platelet quality were measured."}, "red blood cells": {"test_system": "red blood cells", "test": "ATP level in stored red blood cells", "format": "cell-based", "details": "increased energy levels", "protocol": "ATP level or concentration was measured in red blood cells separated from pathogen inactivated whole blood. ATP concentration is a measure of the amount of ATP present in the cells at a given time."}, "white blood cells (WBCs) [2]": {"test_system": "white blood cells (WBCs)", "details": "Allostimulation: treated stimulators"}, "[3]": {"details": "anti-CD3/28, 33 J/mlRBC and above, compared to untreated cells"}, "[4]": {"details": "anti-CD3/28, TH1/TH2 cytokines, 22 J/mlRBC"}, "[5]": {"details": "anti-CD3/28, TH1/TH2 cytokines, 33 J/mlRBC"}, "[6]": {"details": "anti-CD3/28, TH1/TH2 cytokines, 44 J/mlRBC"}, "[7]": {"details": "anti-CD3/28, inflammatory cytokines, 22 J/mlRBC"}, "[8]": {"details": "anti-CD3/28, inflammatory cytokines, 33 J/mlRBC"}, "[9]": {"details": "anti-CD3/28, inflammatory cytokines, 44 J/mlRBC"}, "[10]": {"details": "over 5 days of storage at higher energy levels"}}, "note": "Like-named read-outs stand apart in the source and are kept apart here."}
{"smiles": "Cc1cc2nc3c(=O)[nH]c(=O)nc-3n(C[C@H](O)[C@H](O)[C@H](O)CO)c2cc1C", "note": "[riboflavin, 7,8-dimethyl-10-ribityl isoalloxazine]", "values": [{"measurement": "inflammatory cytokine production in response to anti-CD3/28 antibodies", "setting": "white blood cells (WBCs) [1]", "value": "significantly reduced"}, {"measurement": "TH1/TH2 cytokine production induced by anti-CD3/28 stimulation", "setting": "white blood cells (WBCs) [1]; all energies tested", "value": "significantly reduced"}, {"measurement": "cytokine production in response to anti-CD3/anti-CD28 antibodies blocked", "setting": "white blood cells (WBCs) [1]; all energies tested, with the exception of IL-4 and IL-8 at 22 J/mlRBC", "value": "> 90", "unit": "%"}, {"measurement": "inhibition of IFN-γ production", "setting": "white blood cells (WBCs) [1]; [3]", "value": "> 90", "unit": "%"}, {"measurement": "inhibition of IL-2 production", "setting": "white blood cells (WBCs) [1]; [3]", "value": "> 90", "unit": "%"}, {"measurement": "inhibition of TNF-α production", "setting": "white blood cells (WBCs) [1]; [3]", "value": "> 90", "unit": "%"}, {"measurement": "% inhibition of IFN-γ production", "setting": "white blood cells (WBCs) [1]; [4]", "value": "99 ± 1", "unit": "%"}, {"measurement": "% inhibition of IL-2 production", "setting": "white blood cells (WBCs) [1]; [4]", "value": "91 ± 7", "unit": "%"}, {"measurement": "% inhibition of IL-4 production", "setting": "white blood cells (WBCs) [1]; [4]", "value": 84, "unit": "%"}, {"measurement": "% inhibition of IL-5 production", "setting": "white blood cells (WBCs) [1]; [4]", "value": "94 ± 3", "unit": "%"}, {"measurement": "% inhibition of IL-10 production", "setting": "white blood cells (WBCs) [1]; [4]", "value": "99 ± 1", "unit": "%"}, {"measurement": "% inhibition of TNFα production", "setting": "white blood cells (WBCs) [1]; [4]", "value": "92 ± 15", "unit": "%"}, {"measurement": "% inhibition of IFN-γ production", "setting": "white blood cells (WBCs) [1]; [5]", "value": "100 ± 0", "unit": "%"}, {"measurement": "% inhibition of IL-2 production", "setting": "white blood cells (WBCs) [1]; [5]", "value": "99 ± 1", "unit": "%"}, {"measurement": "% inhibition of IL-4 production", "setting": "white blood cells (WBCs) [1]; [5]", "value": "95 ± 3", "unit": "%"}, {"measurement": "% inhibition of IL-5 production", "setting": "white blood cells (WBCs) [1]; [5]", "value": "99 ± 1", "unit": "%"}, {"measurement": "% inhibition of IL-10 production", "setting": "white blood cells (WBCs) [1]; [5]", "value": "100 ± 0", "unit": "%"}, {"measurement": "% inhibition of TNFα production", "setting": "white blood cells (WBCs) [1]; [5]", "value": "99 ± 1", "unit": "%"}, {"measurement": "% inhibition of IFN-γ production", "setting": "white blood cells (WBCs) [1]; [6]", "value": "100 ± 0", "unit": "%"}, {"measurement": "% inhibition of IL-2 production", "setting": "white blood cells (WBCs) [1]; [6]", "value": "100 ± 0", "unit": "%"}, {"measurement": "% inhibition of IL-4 production", "setting": "white blood cells (WBCs) [1]; [6]", "value": "97 ± 2", "unit": "%"}, {"measurement": "% inhibition of IL-5 production", "setting": "white blood cells (WBCs) [1]; [6]", "value": "99 ± 1", "unit": "%"}, {"measurement": "% inhibition of IL-10 production", "setting": "white blood cells (WBCs) [1]; [6]", "value": "100 ± 0", "unit": "%"}, {"measurement": "% inhibition of TNFα production", "setting": "white blood cells (WBCs) [1]; [6]", "value": "100 ± 0", "unit": "%"}, {"measurement": "% inhibition of IL-1β production", "setting": "white blood cells (WBCs) [1]; [7]", "value": "98 ± 2", "unit": "%"}, {"measurement": "% inhibition of IL-6 production", "setting": "white blood cells (WBCs) [1]; [7]", "value": "99 ± 2", "unit": "%"}, {"measurement": "% inhibition of IL-8 production", "setting": "white blood cells (WBCs) [1]; [7]", "value": 89, "unit": "%"}, {"measurement": "% inhibition of IL-10 production", "setting": "white blood cells (WBCs) [1]; [7]", "value": "99 ± 1", "unit": "%"}, {"measurement": "% inhibition of IL-12 p70 production", "setting": "white blood cells (WBCs) [1]; [7]", "value": "98 ± 4", "unit": "%"}, {"measurement": "% inhibition of TNFα production", "setting": "white blood cells (WBCs) [1]; [7]", "value": "90 ± 12", "unit": "%"}, {"measurement": "% inhibition of IL-1β production", "setting": "white blood cells (WBCs) [1]; [8]", "value": "100 ± 0", "unit": "%"}, {"measurement": "% inhibition of IL-6 production", "setting": "white blood cells (WBCs) [1]; [8]", "value": "100 ± 0", "unit": "%"}, {"measurement": "% inhibition of IL-8 production", "setting": "white blood cells (WBCs) [1]; [8]", "value": "98 ± 2", "unit": "%"}, {"measurement": "% inhibition of IL-10 production", "setting": "white blood cells (WBCs) [1]; [8]", "value": "100 ± 0", "unit": "%"}, {"measurement": "% inhibition of IL-12 p70 production", "setting": "white blood cells (WBCs) [1]; [8]", "value": "99 ± 2", "unit": "%"}, {"measurement": "% inhibition of TNFα production", "setting": "white blood cells (WBCs) [1]; [8]", "value": "100 ± 0", "unit": "%"}, {"measurement": "% inhibition of IL-1β production", "setting": "white blood cells (WBCs) [1]; [9]", "value": "100 ± 0", "unit": "%"}, {"measurement": "% inhibition of IL-6 production", "setting": "white blood cells (WBCs) [1]; [9]", "value": "100 ± 0", "unit": "%"}, {"measurement": "% inhibition of IL-8 production", "setting": "white blood cells (WBCs) [1]; [9]", "value": "100 ± 0", "unit": "%"}, {"measurement": "% inhibition of IL-10 production", "setting": "white blood cells (WBCs) [1]; [9]", "value": "100 ± 0", "unit": "%"}, {"measurement": "% inhibition of IL-12 p70 production", "setting": "white blood cells (WBCs) [1]; [9]", "value": "97 ± 4", "unit": "%"}, {"measurement": "% inhibition of TNFα production", "setting": "white blood cells (WBCs) [1]; [9]", "value": "100 ± 0", "unit": "%"}, {"measurement": "platelet carbon dioxide production", "setting": "platelets; [10]", "value": "appears to decrease"}, {"measurement": "platelet glucose consumption", "setting": "platelets; [10]", "value": "appears to decrease"}, {"measurement": "platelet lactate production", "setting": "platelets; [10]", "value": "appears to increase"}, {"measurement": "platelet oxygen consumption", "setting": "platelets; [10]", "value": "appears to increase"}, {"measurement": "platelet pH", "setting": "platelets; over 5 days of storage, treated and untreated", "value": "remains the same"}, {"measurement": "total concentration of ATP in red blood cells", "setting": "red blood cells", "value": "decrease the total concentration of ATP"}, {"measurement": "% inhibition of proliferation", "setting": "white blood cells (WBCs) [2]; 22 J/mlRBC", "value": "93 ± 3", "unit": "%"}, {"measurement": "% inhibition of proliferation", "setting": "white blood cells (WBCs) [2]; 33 J/mlRBC", "value": "96 ± 2", "unit": "%"}, {"measurement": "% inhibition of proliferation", "setting": "white blood cells (WBCs) [2]; 44 J/mlRBC", "value": "95 ± 2", "unit": "%"}]}
